Patent publication US20230147257A1 (DONG-A ST CO., LTD., priority 2020, published 2023)

Molecular target: T1, AhR (Mus musculus, UniProt P30561)
T1 sequence (P30561 1-848): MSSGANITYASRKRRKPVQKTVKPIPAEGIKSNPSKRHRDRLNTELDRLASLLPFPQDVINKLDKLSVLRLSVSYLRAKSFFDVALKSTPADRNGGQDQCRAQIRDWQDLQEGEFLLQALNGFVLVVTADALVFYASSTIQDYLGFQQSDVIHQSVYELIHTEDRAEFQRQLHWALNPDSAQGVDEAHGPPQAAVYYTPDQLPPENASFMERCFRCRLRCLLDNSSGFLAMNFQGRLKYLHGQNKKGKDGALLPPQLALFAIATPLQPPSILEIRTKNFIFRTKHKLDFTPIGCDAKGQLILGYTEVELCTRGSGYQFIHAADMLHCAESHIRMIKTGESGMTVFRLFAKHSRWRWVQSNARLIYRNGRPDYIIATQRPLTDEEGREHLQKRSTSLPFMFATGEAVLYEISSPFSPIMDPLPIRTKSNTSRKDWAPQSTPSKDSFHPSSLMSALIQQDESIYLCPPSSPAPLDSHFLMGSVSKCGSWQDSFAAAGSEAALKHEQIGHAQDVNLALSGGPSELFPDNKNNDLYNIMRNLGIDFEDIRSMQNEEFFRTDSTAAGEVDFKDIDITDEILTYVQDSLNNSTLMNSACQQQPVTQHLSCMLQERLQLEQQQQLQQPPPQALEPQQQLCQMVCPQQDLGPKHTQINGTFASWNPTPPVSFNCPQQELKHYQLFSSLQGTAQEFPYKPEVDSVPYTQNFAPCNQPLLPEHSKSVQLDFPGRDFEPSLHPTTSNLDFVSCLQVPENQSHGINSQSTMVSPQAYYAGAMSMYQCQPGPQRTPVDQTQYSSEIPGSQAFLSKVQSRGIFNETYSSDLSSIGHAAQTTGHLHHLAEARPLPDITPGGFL
Assay: In vitro assay 2: XRE-luciferase reporter assay, antagonism in mouse cell line (Hepa1c1c7)
Assay type: cell-based
Details: Hepa1c1c7 XRE-Luc, cells treated with kynurenine (#), 6 hours
From the text: In Vitro XRE-Luciferase Reporter Assay (In Vitro Assay 1, 2, 3)
AhR activation leads the induction of target gene expression such as CYP1A1 and CYP1B1 by AhR binding to AhR-responsive DNA elements also known as xenobiotics responsive elements (XRE). The assay for measuring AhR activity herein is the luciferase assay using cell lines transfected with luciferase reporter plasmid containing XREs at the upstream of the reporter gene. Cells transfected with XRE-luciferase reporter (XRE-Luc) plasmid drive luciferase activity reflecting activation and inhibition of AhR in the cells. In addition to transfection with XRE-reporter vector, cells were co-transfected with Nano-luciferase reporter gene construct (Nano-Luc) containing constitutively active promoter as internal control. Kynurenine (an endogenous AhR agonist) was used to stimulate cells to test antagonistic properties of the compounds. The half-maximal inhibitory concentration (IC50) or half-maximal effective concentration (EC50) value was calculated using nonlinear regression (four parameters) with Prism8.0 software (GraphPad).
In Vitro Assay 2: Antagonism in Mouse Cell Line
Hepa1c1c7 (murine liver cancer cell line) cells co-transfected with XRE-Luc and Nano-Luc plasmids were plated in complete medium and incubated overnight at 37° C. in a CO2 incubator. Following incubation, cells were treated with AhR activating ligands such as kynurenic acid, kynurenine(#) with or without test compounds for 6 hours. Firefly luciferase and Nano-luciferase activity was measured using Nano-glo Luciferase kit (Promega) and relative luciferase activity (Firefly/Nano-Luc) was used to calculate IC50 values. The relative luciferase activity was further normalized with agonists alone group as the maximum control and the vehicle group as the minimum control. (IC50 Values are grouped as A, B, C and D, whereby A: IC50<0.01 μM; B: 0.01<IC50<0.1 μM; C: 0.1<IC50<1.0 μM; D: IC50>1.0 μM)

`CC(CO)n1cnc2c(-c3cccnc3)nc(-c3ccc(Cl)cc3)cc2c1=O` (stereo not shown) [Example 46, 6-(4-chlorophenyl)-3-(1-hydroxypropan-2-yl)-8-(pyridin-3-yl)pyrido[3,4-d]pyrimidin-4(3H)-one] was tested, and the IC50 was less than 10 nM.
